Experimental data as given in patent publication US9856220B2 (AbbVie Deutschland GmbH & Co. KG, priority 2011, dated 2018).

Biological target: PDE10A (Homo sapiens (Human), UniProt Q9Y233)
Assay: Measurement of PDE activity (recombinant PDE, cAMP HTRF)
Assay type: biochemical
Settings: 20 nM cyclic nucleotide substrate, 60 minutes at 29 C
Procedure: a) Measurement of PDE Activity
The recombinant PDE proteins are used in in vitro enzymatic reaction for measurement of PDE activity. These recombinant proteins, including PDE10A (human, rat and mouse PDE10) and isoforms of PDEs 1, 3, 4, and 5, were purchased from commercial vendor BPS Bioscience. The enzymatic activity of PDEs was determined by cAMP measurement kit from CisBio (IBA) using HTRF technology.
The PDE enzymatic reaction was carried out in assay buffer (20 mM Tris-HCl pH7.5, 10 mM MgCl2, 0.1% bovine serum albumin) containing enzyme and substrate. […] The substrate cyclic nucleotide (cAMP or cGMP) concentration used in the assay was 20 nM for PDE10, and 100 nM for other PDEs. The inhibitory effect of compound was determined by incubating various concentration of inhibitor in the enzymatic assay. […] Next, the compound at varying concentration was mixed with PDE enzyme. The reaction was initiated by addition of cyclic nucleotide substrate, and incubated for 60 minutes at 29 C. The reaction was stopped by addition of lysis buffer from assay kit. The cAMP-d2 and anti-cAMP cryptate in the lysis buffer detected the level of cAMP left from the PDE hydrolysis reaction. […] Thus, IC50 value of inhibitor can be obtained by plotting inhibitor concentration against PDE activity at that concentration.

Sequence of PDE10A (Q9Y233 whole entry, species assumed): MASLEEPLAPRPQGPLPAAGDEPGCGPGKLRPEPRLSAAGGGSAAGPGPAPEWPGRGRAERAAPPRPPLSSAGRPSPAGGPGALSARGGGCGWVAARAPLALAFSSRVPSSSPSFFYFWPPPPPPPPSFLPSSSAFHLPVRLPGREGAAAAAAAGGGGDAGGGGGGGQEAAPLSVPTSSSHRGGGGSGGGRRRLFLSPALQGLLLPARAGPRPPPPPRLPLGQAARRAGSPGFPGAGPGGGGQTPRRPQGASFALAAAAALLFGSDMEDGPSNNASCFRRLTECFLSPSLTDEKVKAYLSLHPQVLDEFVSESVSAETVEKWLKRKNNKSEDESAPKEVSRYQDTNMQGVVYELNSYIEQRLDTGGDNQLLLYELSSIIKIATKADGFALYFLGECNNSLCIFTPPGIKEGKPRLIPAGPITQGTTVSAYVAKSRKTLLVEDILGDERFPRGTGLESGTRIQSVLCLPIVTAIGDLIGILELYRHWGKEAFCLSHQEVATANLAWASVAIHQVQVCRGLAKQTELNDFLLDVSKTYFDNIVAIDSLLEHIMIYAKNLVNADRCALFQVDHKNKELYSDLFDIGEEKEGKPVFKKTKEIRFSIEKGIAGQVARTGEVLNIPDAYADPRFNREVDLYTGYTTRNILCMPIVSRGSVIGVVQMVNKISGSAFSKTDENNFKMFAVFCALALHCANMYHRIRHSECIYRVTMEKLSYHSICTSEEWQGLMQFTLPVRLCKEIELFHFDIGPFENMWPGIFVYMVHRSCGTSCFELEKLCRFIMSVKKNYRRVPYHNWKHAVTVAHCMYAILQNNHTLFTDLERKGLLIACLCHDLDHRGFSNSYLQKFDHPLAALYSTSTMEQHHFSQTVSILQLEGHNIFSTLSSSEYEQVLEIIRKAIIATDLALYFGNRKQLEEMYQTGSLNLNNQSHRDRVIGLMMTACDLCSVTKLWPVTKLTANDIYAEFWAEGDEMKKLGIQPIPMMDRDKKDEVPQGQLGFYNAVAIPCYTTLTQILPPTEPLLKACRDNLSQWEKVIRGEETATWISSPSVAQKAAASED

With CCn1cc(C(=O)NC2CCc3c(F)cccc32)c2cc(OC)c(OC)cc2c1=O (centres unmarked) [Example 173, 2-Ethyl-N-(4-fluoro-2,3-dihydro-1H-inden-1-yl)-6,7-dimethoxy-1-oxo-1,2-dihydroisoquinoline-4-carboxamide] the IC50 was 200 to 500 nM.

In the case of CCn1cc(C(=O)NCc2ccc(F)cc2)c2cc(OC)c(OC)cc2c1=O [Example 32, 2-Ethyl-6,7-dimethoxy-1-oxo-1,2-dihydro-isoquinoline-4-carboxylic acid 4-fluoro-benzylamide], the IC50 is reported as 200 to 500 nM.

CCn1cc(C(=O)NCc2ccc(OC)cc2)c2cc(OC)c(OC)cc2c1=O [Example 152, 2-Ethyl-6,7-dimethoxy-N-(4-methoxybenzyl)-1-oxo-1,2-dihydroisoquinoline-4-carboxamide] gave an IC50 of 200 to 500 nM.

With CCn1cc(C(=O)NCc2ccc(C)cc2F)c2cc(OC)c(OC)cc2c1=O [Example 273, 2-Ethyl-N-[(2-fluoro-4-methyl-phenyl)methyl]-6,7-dimethoxy-1-oxo-isoquinoline-4-carboxamide] the IC50 was 200 to 500 nM.

CCC(CC)n1cc(C(=O)NCc2cc(C)sc2C)c2cc(OC)c(OC)cc2c1=O [Example 242, N-((2,5-dimethylthiophen-3-yl)methyl)-6,7-dimethoxy-1-oxo-2-(pentan-3-yl)-1,2-dihydroisoquinoline-4-carboxamide] was tested, and the IC50 was 200 to 500 nM.

CCn1cc(C(=O)NCc2ccccc2Cl)c2cc(OC)c(OC)cc2c1=O [Example 162, N-(2-Chlorobenzyl)-2-ethyl-6,7-dimethoxy-1-oxo-1,2-dihydroisoquinoline-4-carboxamide] was tested, and the IC50 was 200 to 500 nM.

With CCCCCNC(=O)c1cn(CC)c(=O)c2cc(OC)c(OC)cc12 [Example 21, 2-Ethyl-6,7-dimethoxy-1-oxo-1,2-dihydro-isoquinoline-4-carboxylic acid pentylamide] the IC50 was 200 to 500 nM.

Work on CCC(CC)n1cc(C(=O)NC2CSc3ccccc32)c2cc(OC)c(OC)cc2c1=O (centres unmarked) [Example 216, 2-(1-Ethyl-propyl)-6,7-dimethoxy-1-oxo-1,2-dihydro-isoquinoline-4-carboxylic acid (2,3-dihydro-benzo[b]thiophen-3-yl)-amide] yielded an IC50 of under 100 nM.

CCCCNC(=O)c1cn(CC)c(=O)c2cc(OC)c(OC)cc12 [Example 1, 2-Ethyl-6,7-dimethoxy-1-oxo-1,2-dihydro-isoquinoline-4-carboxylic acid butylamide] gave an IC50 of 100 to 200 nM.

CCC(CC)n1cc(C(=O)NC2CCc3ccccc32)c2cc(OC)c(OC)cc2c1=O (centres unmarked) [Example 135, 2-(1-Ethyl-propyl)-6,7-dimethoxy-1-oxo-1,2-dihydro-isoquinoline-4-carboxylic acid indan-1-ylamide] gave an IC50 of under 100 nM.

CCCCNC(=O)c1cn(CCc2ccc3ccccc3n2)c(=O)c2cc(OC)ccc12 [Example 182, 7-Methoxy-1-oxo-2-(2-quinolin-2-yl-ethyl)-1,2-dihydro-isoquinoline-4-carboxylic acid butylamide] showed an IC50 of 100 to 200 nM.

With CCn1cc(C(=O)NCc2ccc(C)cc2OCC(F)(F)F)c2cc(OC)c(OC)cc2c1=O [Example 288, 2-Ethyl-6,7-dimethoxy-N-[[4-methyl-2-(2,2,2-trifluoroethoxy)phenyl]methyl]-1-oxo-isoquinoline-4-carboxamide] the IC50 was 200 to 500 nM.

CCn1cc(C(=O)N2Cc3ccccc3C2)c2cc(OC)c(OC)cc2c1=O [Example 51, 4-(1,3-Dihydro-isoindole-2-carbonyl)-2-ethyl-6,7-dimethoxy-2H-isoquinolin-1-one] gave an IC50 of 200 to 500 nM.

Compound CCn1cc(C(=O)NC2CCc3ccc(C)cc32)c2cc(OC)c(OC)cc2c1=O (centres unmarked) [Example 167, 2-Ethyl-6,7-dimethoxy-N-(6-methyl-2,3-dihydro-1H-inden-1-yl)-1-oxo-1,2-dihydroisoquinoline-4-carboxamide] has an IC50 of 200 to 500 nM.

In the case of CCn1cc(C(=O)Nc2cccc(C)c2)c2cc(OC)c(OC)cc2c1=O [Example 145, 2-Ethyl-6,7-dimethoxy-1-oxo-N-m-tolyl-1,2-dihydroisoquinoline-4-carboxamide], the IC50 is reported as 200 to 500 nM.

With CCn1cc(C(=O)NCc2cc(F)cc(F)c2)c2cc(OC)c(OC)cc2c1=O [Example 37, 2-Ethyl-6,7-dimethoxy-1-oxo-1,2-dihydro-isoquinoline-4-carboxylic acid 3,5-difluoro-benzylamide] the IC50 was 100 to 200 nM.

CCn1cc(C(=O)NCc2ccncn2)c2cc(OC)c(OC)cc2c1=O [Example 139, 2-Ethyl-6,7-dimethoxy-1-oxo-N-(pyrimidin-4-ylmethyl)-1,2-dihydroisoquinoline-4-carboxamide] showed an IC50 of 200 to 500 nM.

CCC(CC)n1cc(C(=O)NCc2scnc2C)c2cc(OC)c(OC)cc2c1=O [Example 249, 6,7-Dimethoxy-N-((4-methylthiazol-5-yl)methyl)-1-oxo-2-(pentan-3-yl)-1,2-dihydroisoquinoline-4-carboxamide] was tested, and the IC50 was 200 to 500 nM.

Work on CCC(CC)n1cc(C(=O)NCc2ccc(C)cc2)c2cc(OC)c(OC)cc2c1=O [Example 262, 6,7-Dimethoxy-N-(4-methylbenzyl)-1-oxo-2-(pentan-3-yl)-1,2-dihydroisoquinoline-4-carboxamide] yielded an IC50 of 100 to 200 nM.

CCn1cc(C(=O)NCc2ccc(C)c(F)c2F)c2cc(OC)c(OC)cc2c1=O [Example 278, N-[(2,3-Difluoro-4-methyl-phenyl)methyl]-2-ethyl-6,7-dimethoxy-1-oxo-isoquinoline-4-carboxamide] showed an IC50 of 200 to 500 nM.

For CCn1cc(C(=O)NC2CCc3ccc(OC)cc32)c2cc(OC)c(OC)cc2c1=O (centres unmarked) [Example 176, 2-Ethyl-6,7-dimethoxy-N-(6-methoxy-2,3-dihydro-1H-inden-1-yl)-1-oxo-1,2-dihydroisoquinoline-4-carboxamide], the IC50 was 200 to 500 nM.

With CCn1cc(C(=O)NCc2cccc(C)c2)c2cc(OC)c(OC)cc2c1=O [Example 153] the IC50 was 100 to 200 nM.

CCn1cc(C(=O)NCc2ccccc2)c2cc(OC)c(OC)cc2c1=O [Example 26, 2-Ethyl-6,7-dimethoxy-1-oxo-1,2-dihydro-isoquinoline-4-carboxylic acid benzylamide] showed an IC50 of 100 to 200 nM.

CCC(CC)n1cc(C(=O)NCc2ccc(F)c(F)c2)c2cc(OC)c(OC)cc2c1=O [Example 189, 2-(1-Ethyl-propyl)-6,7-dimethoxy-1-oxo-1,2-dihydro-isoquinoline-4-carboxylic acid 3,4-difluoro-benzylamide] was tested, and the IC50 was 100 to 200 nM.

With CCn1cc(C(=O)Nc2ccc(F)cc2)c2cc(OC)c(OC)cc2c1=O [Example 156, 2-Ethyl-N-(4-fluorophenyl)-6,7-dimethoxy-1-oxo-1,2-dihydroisoquinoline-4-carboxamide] the IC50 was 200 to 500 nM.

With CCn1cc(C(=O)Nc2ccccc2OC)c2cc(OC)c(OC)cc2c1=O [Example 146, 2-Ethyl-6,7-dimethoxy-N-(2-methoxyphenyl)-1-oxo-1,2-dihydroisoquinoline-4-carboxamide] the IC50 was 200 to 500 nM.

With CCC(CC)n1cc(C(=O)NCc2cc(F)cc(F)c2)c2cc(OC)c(OC)cc2c1=O [Example 188, 2-(1-Ethyl-propyl)-6,7-dimethoxy-1-oxo-1,2-dihydro-isoquinoline-4-carboxylic acid 3,5-difluoro-benzylamide] the IC50 was 100 to 200 nM.

With CCC(C)Oc1cc(C)ccc1CNC(=O)c1cn(CC)c(=O)c2cc(OC)c(OC)cc12 (centres unmarked) [Example 298, N-(2-sec-Butoxy-4-methylbenzyl)-2-ethyl-6,7-dimethoxy-1-oxo-1,2-dihydroisoquinoline-4-carboxamide] the IC50 was 200 to 500 nM.

With CCC(CC)n1cc(C(=O)NC2COc3ccccc32)c2cc(OC)c(OC)cc2c1=O (centres unmarked) [Example 194, 2-(1-Ethyl-propyl)-6,7-dimethoxy-1-oxo-1,2-dihydro-isoquinoline-4-carboxylic acid (2,3-dihydro-benzofuran-3-yl)-amide] the IC50 was under 100 nM.

With CCc1ccc(CNC(=O)c2cn(C(CC)CC)c(=O)c3cc(OC)c(OC)cc23)s1 [Example 266, N-((5-Ethylthiophen-2-yl)methyl)-6,7-dimethoxy-1-oxo-2-(pentan-3-yl)-1,2-dihydroisoquinoline-4-carboxamide] the IC50 was 200 to 500 nM.

Compound CCC(C)CNC(=O)c1cn(CC)c(=O)c2cc(OC)c(OC)cc12 (centres unmarked) [Example 20, 2-Ethyl-6,7-dimethoxy-1-oxo-1,2-dihydro-isoquinoline-4-carboxylic acid (2-methyl-butyl)-amide] has an IC50 of 200 to 500 nM.

With CCn1cc(C(=O)NCc2ccc(C)cc2OC(C)C)c2cc(OC)c(OC)cc2c1=O [Example 302, 2-Ethyl-N-(2-isopropoxy-4-methylbenzyl)-6,7-dimethoxy-1-oxo-1,2-dihydroisoquinoline-4-carboxamide] the IC50 was 200 to 500 nM.

CCn1cc(C(=O)NCc2cccc(Cl)c2)c2cc(OC)c(OC)cc2c1=O [Example 142, N-(3-Chlorobenzyl)-2-ethyl-6,7-dimethoxy-1-oxo-1,2-dihydroisoquinoline-4-carboxamide] showed an IC50 of 100 to 200 nM.

Work on CCn1cc(C(=O)NC2CCc3c(C)cccc32)c2cc(OC)c(OC)cc2c1=O (centres unmarked) [Example 174, 2-Ethyl-6,7-dimethoxy-N-(4-methyl-2,3-dihydro-1H-inden-1-yl)-1-oxo-1,2-dihydroisoquinoline-4-carboxamide] yielded an IC50 of 200 to 500 nM.

Compound COc1cc2c(C(=O)NC3CCc4ccccc43)cn(CCc3ccc4ccccc4n3)c(=O)c2cc1OC (centres unmarked) [Example 323, N-Indan-1-yl-6,7-dimethoxy-1-oxo-2-[2-(2-quinolyl)ethyl]isoquinoline-4-carboxamide; 2,2,2-trifluoroacetic acid] has an IC50 of 200 to 500 nM.
